# Data from paper PMC10810011 (Expert opinion on drug delivery, 2023).
# Legend:
# Caco-2/BBe cells = assay: MTT cytotoxicity, 2D Caco-2/BBe; conditions: 24 h
# AHR-activation = molecular target: T1, AHR-activation (Homo sapiens, UniProt P35869); assay: InVEST fluorescence polarization binding/cell-based activity, AHR-activation; conditions: M13 20 μM, 100 = no effect
# T1 sequence (P35869 11-848): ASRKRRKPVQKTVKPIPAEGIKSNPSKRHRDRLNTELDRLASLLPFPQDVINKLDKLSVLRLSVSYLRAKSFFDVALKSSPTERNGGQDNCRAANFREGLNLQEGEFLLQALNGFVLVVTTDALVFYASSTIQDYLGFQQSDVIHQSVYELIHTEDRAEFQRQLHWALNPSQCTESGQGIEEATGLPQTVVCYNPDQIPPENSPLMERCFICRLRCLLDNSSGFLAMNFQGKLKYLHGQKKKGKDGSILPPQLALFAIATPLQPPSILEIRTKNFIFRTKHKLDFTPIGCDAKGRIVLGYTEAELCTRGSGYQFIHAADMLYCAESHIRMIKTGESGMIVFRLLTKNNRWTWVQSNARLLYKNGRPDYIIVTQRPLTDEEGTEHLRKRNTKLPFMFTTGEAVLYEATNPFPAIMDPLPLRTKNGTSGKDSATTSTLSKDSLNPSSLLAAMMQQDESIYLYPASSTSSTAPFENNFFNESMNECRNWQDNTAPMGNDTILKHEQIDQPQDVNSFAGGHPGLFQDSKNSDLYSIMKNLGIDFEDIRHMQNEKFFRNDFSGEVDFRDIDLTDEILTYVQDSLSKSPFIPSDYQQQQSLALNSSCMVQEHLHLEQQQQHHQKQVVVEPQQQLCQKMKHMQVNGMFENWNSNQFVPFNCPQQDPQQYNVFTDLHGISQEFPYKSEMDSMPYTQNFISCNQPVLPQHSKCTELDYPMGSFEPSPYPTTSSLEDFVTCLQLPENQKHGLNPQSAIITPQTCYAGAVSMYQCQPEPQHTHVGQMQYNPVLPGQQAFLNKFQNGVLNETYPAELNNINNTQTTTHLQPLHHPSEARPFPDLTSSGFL
# A1 adenosine = A1 adenosine (Homo sapiens, UniProt P30542); assay: InVEST radioligand filter binding, A1 adenosine; conditions: M13 20 μM, 100 = no effect
# PDE3A = PDE3A (Homo sapiens, UniProt Q14432); assay: InVEST enzymatic activity, PDE3A; format: biochemical; conditions: M13 20 μM, 100 = no effect
# HIEC-6 cells = assay: MTT cytotoxicity, 2D HIEC-6; format: cell-based, human; conditions: HIEC-6 (normal intestinal), 24 h
# Chain of A1 adenosine (P30542 whole entry): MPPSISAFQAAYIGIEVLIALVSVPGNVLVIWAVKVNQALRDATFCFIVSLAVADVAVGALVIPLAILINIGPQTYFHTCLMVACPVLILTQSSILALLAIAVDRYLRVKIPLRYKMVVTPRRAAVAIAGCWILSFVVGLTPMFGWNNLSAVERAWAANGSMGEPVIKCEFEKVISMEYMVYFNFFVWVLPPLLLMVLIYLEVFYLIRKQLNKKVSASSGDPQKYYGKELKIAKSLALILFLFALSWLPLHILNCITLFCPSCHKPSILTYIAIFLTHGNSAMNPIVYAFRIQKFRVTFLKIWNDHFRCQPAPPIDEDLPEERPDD
# Chain of PDE3A (Q14432 whole entry): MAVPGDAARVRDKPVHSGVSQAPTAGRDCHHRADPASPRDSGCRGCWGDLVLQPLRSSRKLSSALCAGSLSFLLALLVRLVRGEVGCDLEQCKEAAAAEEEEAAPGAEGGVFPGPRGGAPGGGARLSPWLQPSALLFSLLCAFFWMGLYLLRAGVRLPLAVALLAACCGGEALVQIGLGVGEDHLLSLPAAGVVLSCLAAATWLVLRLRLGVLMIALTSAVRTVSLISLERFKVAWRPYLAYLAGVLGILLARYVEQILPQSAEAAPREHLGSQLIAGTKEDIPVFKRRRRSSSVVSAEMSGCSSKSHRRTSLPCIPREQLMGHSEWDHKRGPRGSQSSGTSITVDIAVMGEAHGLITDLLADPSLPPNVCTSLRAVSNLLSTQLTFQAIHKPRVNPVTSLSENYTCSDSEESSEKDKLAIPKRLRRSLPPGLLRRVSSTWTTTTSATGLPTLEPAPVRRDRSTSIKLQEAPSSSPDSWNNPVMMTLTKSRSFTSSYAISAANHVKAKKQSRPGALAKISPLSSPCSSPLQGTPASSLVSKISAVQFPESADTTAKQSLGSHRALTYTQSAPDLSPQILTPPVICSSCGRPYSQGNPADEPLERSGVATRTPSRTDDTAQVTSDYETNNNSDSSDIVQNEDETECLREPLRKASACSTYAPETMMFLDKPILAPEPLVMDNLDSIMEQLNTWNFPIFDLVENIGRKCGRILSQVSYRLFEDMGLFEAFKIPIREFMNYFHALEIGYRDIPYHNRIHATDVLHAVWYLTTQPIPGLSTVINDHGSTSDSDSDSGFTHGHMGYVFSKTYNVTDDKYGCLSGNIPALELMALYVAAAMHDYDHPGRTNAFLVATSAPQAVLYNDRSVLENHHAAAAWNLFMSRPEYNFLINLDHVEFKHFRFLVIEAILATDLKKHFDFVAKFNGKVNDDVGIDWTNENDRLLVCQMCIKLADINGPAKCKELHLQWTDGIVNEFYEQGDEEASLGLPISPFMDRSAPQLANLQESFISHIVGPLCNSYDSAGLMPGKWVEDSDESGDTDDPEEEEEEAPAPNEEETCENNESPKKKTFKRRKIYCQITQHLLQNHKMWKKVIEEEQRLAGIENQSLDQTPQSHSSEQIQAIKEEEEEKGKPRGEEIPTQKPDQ
compound,measurement,setting,value
"CCCCCC(CC(=O)CCc1ccc(O)c(OC)c1)SC[C@H](NC(=O)CC[C@H](N)C(=O)O)C(=O)NCC(=O)O (stereo partly drawn) [M13, 5-glutathione-6-shogaol]",fold by which IC50 against HIEC-6 is higher than against Caco-2/BBe,Caco-2/BBe cells,6 fold
same,IC50,Caco-2/BBe cells; Caco-2/BBe,16.7 µM
same,% Activity Data 1,AHR-activation; repetition 1,100%
same,% Activity Data 2,AHR-activation; repetition 2,101%
same,% Activity Data 1,A1 adenosine; repetition 1,85%
same,% Activity Data 2,A1 adenosine; repetition 2,87%
same,% Activity Data 1,PDE3A; repetition 1,93%
same,% Activity Data 2,PDE3A; repetition 2,94%
same,IC50,HIEC-6 cells,> 100 µM
